From US6355799B1, “Substituted benzene compounds, process for their preparation, and herbicidal and defoliant compositions containing them” (ISK Americas Incorporated, priority 1997, dated 2002)

Assays:
Assay type in all cases: in vivo
[1] = test system: upland rice (Oryza sp., var. Tebonnet, RICE); assay: Post-emerge test, crop safety; conditions: post-emerge, 14 days after application, rating scale 0-100
Method in brief: (§1)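 Each test used a mechanized track sprayer delivering 187 l/ha of acetone solution at 15–1000 g ai/ha. Post-emerge foliage at 2–3 leaves was treated with added 0.25% v/v non-ionic surfactant and bottom-watered only. Injury was assessed on day 14, where 100 means total kill.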

[2] = test system: field corn (Zea mays L., var. Dekalb 535, CORN); assay: Post-emerge test, crop safety; conditions: post-emerge, 14 days after application, rating scale 0-100
Method in brief: as §1

[3] = test system: upland rice (Oryza sp., var. Tebonnet, RICE); assay: Pre-emerge test, crop safety; conditions: crop damage rating 0-100, 14 days after application
Method in brief: (§2)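 Sandy loam pots; pre-emerge: sown 1 d pre-spray, surface-watered after, then bottom-watered. Post-emerge: sown 8–21 d before, 2–3 leaf stage, + 0.25% v/v NIS, bottom-watered. Acetone, 187 l/ha track spray, 15–1000 g ai/ha. 0–100 injury score, day 14.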

[4] = test system: field corn (Zea mays L., var. Dekalb 535, CORN); assay: Pre-emerge test, crop safety; conditions: crop damage rating 0-100, 14 days after application
Method in brief: as §2

[5] = test system: redroot pigweed (Amaranthus retroflexus, AMARE); assay: Pre-emerge test, greenhouse herbicide activity screening; conditions: phytotoxicity rating 0-100, 14 days after application
Method in brief: (§3)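 Plants grown in 10 cm pots of sandy loam mix received acetone-dissolved compounds through a moving flat-fan nozzle. Doses ranged from 15 to 1000 g ai/ha. Pre-emerge pots were seeded one day earlier, post-emerge pots 8–21 days earlier. Fourteen days on, each pot was graded 0–100 for damage.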

[6] = test system: sicklepod (Cassia obtusifolia, CASOB); assay: Post-emerge test, greenhouse herbicide activity screening; conditions: post-emerge, 14 days after application, rating scale 0-100
Method in brief: (§4)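 Applied at 15–1000 g ai/ha from acetone in 187 l/ha spray volume. Post-emergence applications included 0.25% v/v non-ionic surfactant and reached plants sown 8–21 days before. Pre-emergence applications were incorporated by surface watering. Efficacy or crop damage was rated on a 0–100 scale after 14 days.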

[7] = test system: green foxtail (Setaria viridis, SETVI); assay: as above; conditions: post-emerge, 14 days after application, rating scale 0-100
Method in brief: as §4

[8] = test system: johnsongrass (Sorghum halepense, SORHA); assay: as above; conditions: post-emerge, 14 days after application, rating scale 0-100
Method in brief: as §4

[9] = test system: large crabgrass (Digitaria sanguinalis, DIGSA); assay: as above; conditions: post-emerge, 14 days after application, rating scale 0-100
Method in brief: as §4

[10] = test system: velvetleaf (Abutilon theophrasti, ABUTH); assay: as above; conditions: post-emerge, 14 days after application, rating scale 0-100
Method in brief: as §4

[11] = test system: lambsquarters (Chenopodium album, CHEAL); assay: as above; conditions: post-emerge, 14 days after application, rating scale 0-100
Method in brief: as §4

[12] = test system: barnyardgrass (Echinochloa crus-galli, ECHCG); assay: as above; conditions: post-emerge, 14 days after application, rating scale 0-100
Method in brief: as §4

[13] = test system: redroot pigweed (Amaranthus retroflexus, AMARE); assay: as above; conditions: post-emerge, 14 days after application
Method in brief: as §4

[14] = test system: ivyleaf morningglory (Ipomoea hederacea, IPOHE); assay: as above; conditions: post-emerge, 14 days after application, rating scale 0-100
Method in brief: as §4

[15] = test system: sicklepod (Cassia obtusifolia, CASOB); assay: Pre-emerge test, greenhouse herbicide activity screening; conditions: phytotoxicity rating 0-100, 14 days after application
Method in brief: as §3

[16] = test system: green foxtail (Setaria viridis, SETVI); assay: as above; conditions: phytotoxicity rating 0-100, 14 days after application
Method in brief: as §3

[17] = test system: johnsongrass (Sorghum halepense, SORHA); assay: as above; conditions: phytotoxicity rating 0-100, 14 days after application
Method in brief: as §3

[18] = test system: large crabgrass (Digitaria sanguinalis, DIGSA); assay: as above; conditions: phytotoxicity rating 0-100, 14 days after application
Method in brief: as §3

[19] = test system: velvetleaf (Abutilon theophrasti, ABUTH); assay: as above; conditions: phytotoxicity rating 0-100, 14 days after application
Method in brief: as §3

[20] = test system: lambsquarters (Chenopodium album, CHEAL); assay: as above; conditions: phytotoxicity rating 0-100, 14 days after application
Method in brief: as §3

[21] = test system: barnyardgrass (Echinochloa crus-galli, ECHCG); assay: as above; conditions: phytotoxicity rating 0-100, 14 days after application
Method in brief: as §3

[22] = test system: ivyleaf morningglory (Ipomoea hederacea, IPOHE); assay: as above; conditions: phytotoxicity rating 0-100, 14 days after application
Method in brief: as §3

COc1c(Cl)cc(F)c(-n2c(=O)cc(C(F)(F)F)n(C)c2=O)c1NC(=O)OCc1ccc2ccccc2c1 [4-28]
phytotoxicity rating RICE (crop damage) ([1]; 63 g ai/ha): 10
phytotoxicity rating RICE (crop damage) ([1]; 250 g ai/ha): 15
phytotoxicity rating CORN (crop damage) ([2]; 63 g ai/ha): 0
phytotoxicity rating CORN (crop damage) ([2]; 250 g ai/ha): 5
Pre-emerge Herbicidal Activity RICE ([3]; 63 g ai/ha): 0
Pre-emerge Herbicidal Activity RICE ([3]; 250 g ai/ha): 15
Pre-emerge Herbicidal Activity CORN ([4]; 63 g ai/ha): 0
Pre-emerge Herbicidal Activity CORN ([4]; 250 g ai/ha): 0
Pre-emerge Herbicidal Activity AMARE ([5]; 63 g ai/ha): 40
Pre-emerge Herbicidal Activity AMARE ([5]; 250 g ai/ha): 70
phytotoxicity rating CASOB ([6]; 63 g ai/ha): 50
phytotoxicity rating CASOB ([6]; 250 g ai/ha): 50
phytotoxicity rating SETVI ([7]; 63 g ai/ha): 10
phytotoxicity rating SETVI ([7]; 250 g ai/ha): 30
phytotoxicity rating SORHA ([8]; 63 g ai/ha): 0
phytotoxicity rating SORHA ([8]; 250 g ai/ha): 10
phytotoxicity rating DIGSA ([9]; 63 g ai/ha): 0
phytotoxicity rating DIGSA ([9]; 250 g ai/ha): 20
phytotoxicity rating ABUTH ([10]; 63 g ai/ha): 100
phytotoxicity rating ABUTH ([10]; 250 g ai/ha): 100
phytotoxicity rating CHEAL ([11]; 63 g ai/ha): 70
phytotoxicity rating CHEAL ([11]; 250 g ai/ha): 90
phytotoxicity rating ECHCG ([12]; 63 g ai/ha): 0
phytotoxicity rating ECHCG ([12]; 250 g ai/ha): 20
phytotoxicity rating AMARE ([13]; 63 g ai/ha, rating scale 0-100 (0 no damage, 100 complete death)): 80
phytotoxicity rating AMARE ([13]; 250 g ai/ha, rating scale 0-100): 100
phytotoxicity rating IPOHE ([14]; 63 g ai/ha): 60
phytotoxicity rating IPOHE ([14]; 250 g ai/ha): 80
Pre-emerge Herbicidal Activity CASOB ([15]; 63 g ai/ha): 0
Pre-emerge Herbicidal Activity CASOB ([15]; 250 g ai/ha): 0
Pre-emerge Herbicidal Activity SETVI ([16]; 63 g ai/ha): 20
Pre-emerge Herbicidal Activity SETVI ([16]; 250 g ai/ha): 60
Pre-emerge Herbicidal Activity SORHA ([17]; 63 g ai/ha): 0
Pre-emerge Herbicidal Activity SORHA ([17]; 250 g ai/ha): 0
Pre-emerge Herbicidal Activity DIGSA ([18]; 63 g ai/ha): 0
Pre-emerge Herbicidal Activity DIGSA ([18]; 250 g ai/ha): 0
Pre-emerge Herbicidal Activity ABUTH ([19]; 63 g ai/ha): 20
Pre-emerge Herbicidal Activity ABUTH ([19]; 250 g ai/ha): 60
Pre-emerge Herbicidal Activity CHEAL ([20]; 63 g ai/ha): 70
Pre-emerge Herbicidal Activity CHEAL ([20]; 250 g ai/ha): 100
Pre-emerge Herbicidal Activity ECHCG ([21]; 63 g ai/ha): 0
Pre-emerge Herbicidal Activity ECHCG ([21]; 250 g ai/ha): 0
Pre-emerge Herbicidal Activity IPOHE ([22]; 63 g ai/ha): 0
Pre-emerge Herbicidal Activity IPOHE ([22]; 250 g ai/ha): 0
